Results from ChEMBL document CHEMBL1909046, “DrugMatrix in vitro pharmacology data”.

Tests used:
[1] = molecular target: T1, Alpha-1A adrenergic receptor (Rattus norvegicus, UniProt P43140); experiment: DRUGMATRIX: Alpha-1A adrenergic receptor radioligand binding (ligand: prazosin); format: cell membranes, Wistar, Submaxillary gland, Membrane; conditions: Not Active = under 50% inhibition at 10 µM
T1 sequence (P43140 whole entry): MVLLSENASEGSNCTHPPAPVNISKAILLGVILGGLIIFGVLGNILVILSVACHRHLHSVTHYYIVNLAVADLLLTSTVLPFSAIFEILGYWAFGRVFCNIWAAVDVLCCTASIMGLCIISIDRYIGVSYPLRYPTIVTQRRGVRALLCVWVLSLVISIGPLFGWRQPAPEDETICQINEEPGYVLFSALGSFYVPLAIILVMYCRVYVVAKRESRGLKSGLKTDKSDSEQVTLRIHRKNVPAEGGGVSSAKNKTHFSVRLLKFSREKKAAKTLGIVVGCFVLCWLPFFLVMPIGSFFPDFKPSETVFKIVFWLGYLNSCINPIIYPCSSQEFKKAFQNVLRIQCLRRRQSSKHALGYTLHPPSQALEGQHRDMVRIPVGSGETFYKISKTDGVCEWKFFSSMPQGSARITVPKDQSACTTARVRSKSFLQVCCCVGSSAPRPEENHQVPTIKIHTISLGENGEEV

[2] = DRUGMATRIX: GABAA, Muscimol, Central radioligand binding (ligand: [3H] Muscimol); format: cell membranes, Rattus norvegicus, Wistar, Brain, Membrane; conditions: Not Active = under 50% inhibition at 10 µM
[3] = DRUGMATRIX: GABAA, Flunitrazepam, Central radioligand binding (ligand: [3H] Flunitrazepam); format: cell membranes, Rattus norvegicus, Wistar, Brain, Membrane; conditions: Not Active = under 50% inhibition at 10 µM
Glycine receptor = Glycine receptor (Rattus norvegicus, UniProt P22771+P24524+P07727+P20781); format: cell membranes, Wistar, Spinal cord, Membrane; also: in other assays of this panel Not Active means under 50% inhibition at 10 µM
Histamine H2 receptor = Histamine H2 receptor (Homo sapiens, UniProt P25021); format: cell membranes, CHO-K1, Membrane; conditions: cho-k1; also: in other assays of this panel Not Active means under 50% inhibition at 10 µM
Chain of Histamine H2 receptor (P25021 whole entry): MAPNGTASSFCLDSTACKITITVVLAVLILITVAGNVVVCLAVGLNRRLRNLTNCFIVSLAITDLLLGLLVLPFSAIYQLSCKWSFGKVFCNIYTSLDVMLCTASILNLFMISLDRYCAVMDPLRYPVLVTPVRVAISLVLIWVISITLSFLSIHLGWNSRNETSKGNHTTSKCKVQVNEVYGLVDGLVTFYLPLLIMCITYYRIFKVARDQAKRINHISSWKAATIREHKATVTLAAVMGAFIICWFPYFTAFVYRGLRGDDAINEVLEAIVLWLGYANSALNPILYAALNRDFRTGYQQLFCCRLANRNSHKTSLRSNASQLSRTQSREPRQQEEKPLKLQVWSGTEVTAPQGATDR

[4] = molecular target: T2, Muscarinic acetylcholine receptor M2 (Homo sapiens, UniProt P08172); format: cell membranes, CHO-K1, Membrane; conditions: cho-k1; also: in other assays of this panel Not Active means under 50% inhibition at 10 µM
T2 sequence (P08172 whole entry): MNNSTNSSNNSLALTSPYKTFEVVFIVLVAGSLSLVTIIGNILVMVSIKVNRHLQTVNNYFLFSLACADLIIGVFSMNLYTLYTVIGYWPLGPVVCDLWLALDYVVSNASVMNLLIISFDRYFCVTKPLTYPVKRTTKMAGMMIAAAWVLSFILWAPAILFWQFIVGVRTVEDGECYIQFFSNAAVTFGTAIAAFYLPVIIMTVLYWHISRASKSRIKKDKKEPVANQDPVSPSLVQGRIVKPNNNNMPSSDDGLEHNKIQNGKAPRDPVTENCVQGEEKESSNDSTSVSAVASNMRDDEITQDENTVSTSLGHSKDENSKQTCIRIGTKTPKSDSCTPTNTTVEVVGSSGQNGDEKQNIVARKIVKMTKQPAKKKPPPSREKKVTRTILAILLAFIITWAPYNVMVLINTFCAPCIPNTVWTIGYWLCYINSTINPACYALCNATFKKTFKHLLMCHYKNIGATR

Row | SMILES | IC50 [1] | IC50 [2] | Ki [2] | IC50 [3] | Ki [3] | IC50 (Glycine receptor) | IC50 (Histamine H2 receptor) | IC50 [4] | IC50 ([1]; read-out: IC50) | Ki ([1]; read-out: Ki)
1 | C=CCc1ccc(O)c(OC)c1 [EUGENOL] | Not Active | Not Active | Not Active | Not Active | Not Active | Not Active | Not Active | Not Active |  | 
2 | CC(C(=O)O)c1cccc(Oc2ccccc2)c1 (stereo not given) [FENOPROFEN] | Not Active | Not Active | Not Active | Not Active | Not Active | Not Active | Not Active | Not Active |  | 
3 | CC(C)(C)NC(=O)[C@H]1CC[C@H]2[C@@H]3CC[C@H]4NC(=O)C=C[C@]4(C)[C@H]3CC[C@]12C [FINASTERIDE] | Not Active | Not Active | Not Active | Not Active | Not Active | Not Active | Not Active | Not Active |  | 
4 | COc1ccc2c3c1O[C@H]1C[C@@H](O)C=C[C@@]31CCN(C)C2 [GALANTAMINE] | Not Active | Not Active | Not Active | Not Active | Not Active | Not Active | Not Active | Not Active |  | 
5 | Nc1ccn([C@@H]2O[C@H](CO)[C@@H](O)C2(F)F)c(=O)n1 [GEMCITABINE] | Not Active | Not Active | Not Active | Not Active | Not Active | Not Active | Not Active | Not Active |  | 
6 | CC(C)=CCC/C(C)=C/CO [GERANIOL] | Not Active | Not Active | Not Active | Not Active | Not Active | Not Active | Not Active | Not Active |  | 
7 | N=C(N)NC(=O)Cc1c(Cl)cccc1Cl [GUANFACINE] |  | Not Active | Not Active | Not Active | Not Active | Not Active | Not Active | Not Active | 1350 nM | 546 nM
8 | Oc1c(Cl)cc(Cl)c(Cl)c1Cc1c(O)c(Cl)cc(Cl)c1Cl [HEXACHLOROPHENE] | Not Active | Not Active | Not Active | Not Active | Not Active | Not Active | Not Active | Not Active |  | 
9 | NNc1nncc2ccccc12 [HYDRALAZINE] | Not Active | Not Active | Not Active | Not Active | Not Active | Not Active | Not Active | Not Active |  | 
10 | CC(=O)[C@@]1(O)CC[C@H]2[C@@H]3CCC4=CC(=O)CC[C@]4(C)[C@H]3CC[C@@]21C [HYDROXYPROGESTERONE] | Not Active | Not Active | Not Active | Not Active | Not Active | Not Active | Not Active | Not Active |  | 
11 | COC1=C(OC)C(=O)C(CCCCCCCCCCO)=C(C)C1=O [IDEBENONE] | Not Active | Not Active | Not Active | Not Active | Not Active | Not Active | Not Active | Not Active |  | 
12 | CC(C)NNC(=O)c1ccncc1 [IPRONIAZID] | Not Active | Not Active | Not Active | Not Active | Not Active | Not Active | Not Active | Not Active |  | 
13 | Cc1c(OCC(F)(F)F)ccnc1C[S+]([O-])c1nc2ccccc2[nH]1 (stereo not given) [LANSOPRAZOLE] | Not Active | Not Active | Not Active | Not Active | Not Active | Not Active | Not Active | Not Active |  | 
